Laboratory results as given in US20230416261A1, “ETHANEDIAMINE-HETEROCYCLE DERIVATIVES AS INHIBITORS OF PROTEIN ARGININE METHYLTRANSFERASES” (Board of Regents, The University of Texas System, priority 2021, published 2023).

Tests used:
[1] = molecular target: T1, PRMT1 (Homo sapiens, UniProt Q99873); assay: PRMT1 Enzymatic Assay (LANCE TR-FRET, methylation of histone H4 at Arg3); type: biochemical; parameters: purchased SignalChem P365-380G; conditions: PRMT1 1.5 nM, SAM 1 μM, biotinylated histone H4 (1-21) 25 nM; read-out: PRMT-1 IC50
T1 sequence (Q99873 whole entry): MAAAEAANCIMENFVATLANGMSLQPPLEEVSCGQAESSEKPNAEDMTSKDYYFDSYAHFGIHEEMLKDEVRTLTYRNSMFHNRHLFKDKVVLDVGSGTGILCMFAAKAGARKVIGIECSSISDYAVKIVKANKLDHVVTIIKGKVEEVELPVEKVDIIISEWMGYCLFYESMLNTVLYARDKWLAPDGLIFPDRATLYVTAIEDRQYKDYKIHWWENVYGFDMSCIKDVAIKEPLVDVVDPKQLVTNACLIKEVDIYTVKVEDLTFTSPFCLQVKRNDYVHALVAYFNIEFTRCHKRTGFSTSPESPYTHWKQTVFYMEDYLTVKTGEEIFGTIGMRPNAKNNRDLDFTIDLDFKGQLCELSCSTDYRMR
Procedure: In order to measure PRMT1 enzymatic activity the LANCE TR-FRET assay from PerkinElmer was used to follow the methylation of histone H4 at Arg3 using S-adenosyl-L-methionine (SAM) as the methyl group donor.
This enzymatic assay was performed in a 384 well, white, low volume plate (PerkinElmer, Catalog 6008289) with assay buffer consisting of 50 mM Hepes (pH 8) (Teknova, Catalog #H1090), 1 mM TCEP (Sigma, Catalog #C4706), and 0.003% Tween-20 (Thermo, Catalog #85114). Stock solutions of the test compounds were prepared in 100% DMSO (Sigma, Catalog #D2650) and serially diluted 1:3 using 100% DMSO. Compounds were additionally diluted 1:40 in assay buffer, and 2 uL/well were transferred to the assay plate. 4 uL/well (final concentration 1.5 nM) of PRMT1 protein (SignalChem, Catalog #P365-380G) diluted in assay buffer was added to the assay plate followed by a 15 min preincubation at room temperature. 4 uL/well of SAM (Sigma, Catalog #A7007) and biotinylated histone H4 (1-21) (AnaSpec, Catalog #62555) (final concentrations 1 μM and 25 nM, respectively) diluted in assay buffer were then added to the assay plate followed by a 1 hour reaction time. Final concentrations of PRMT1, SAM, and histone H4 (1-21) refer to a […].
Detection of methylated histone H4 (H4R^3me) was achieved by combining LANCE Ultra Europium-anti-H4R^3me antibody (PerkinElmer, Catalog #TRF04-14), LANCE Ultra ULight-anti-streptavidin antibody (PerkinElmer, Catalog #TRF0102), and sinefungin (Sigma, Catalog #S8559) (final concentrations 2 nM, 50 nM, and 100 μM respectively) in 1× LANCE detection buffer (PerkinElmer, Catalog #CR97-100) and adding L/well of the detection solution to the assay plate. Detection reagents were allowed to react for 1 hour at room temperature. Final concentrations in the detection solution refer to a L volume. The europium fluorescence signal and the ULight TR-FRET signal were measured using a BioTek Synergy Neo plate reader: excitation at 330 nm, emission at 620 nm and 665 nm respectively, and the ratio of the two signals (665 nm/620 nm) was used for curve fitting. IC50 values were calculated using a four-parameter logistic curve fit using Genedata Screener software.

[2] = system: DOHH2 cells; assay: DOHH2 Long Term Phenotypic Assay (7 days, Cell Titer-Glo viability); type: cell-based; conditions: Homo sapiens, DOHH-2, 168 h, Cell Titer-Glo 2.0
Procedure: DOHH2 cells were kindly provided by Michael Green (MDACC). The cells were routinely maintained in RPMI-1640 Medium (ATCC, Catalog #30-2001) supplemented with 10% fetal bovine serum (Sigma, Catalog #F2442), 100 units/mL penicillin and 100 μg/mL streptomycin (Gibco, Catalog #15140-122) in a humidified incubator (37° C., 5% CO2). Cells were seeded onto a white, CulturPlate-384 (Perkin Elmer, catalog #6007680) at a density of 250 cells per well in a volume of 50 μL. Stock solutions of the test compounds were prepared in 100% DMSO (Sigma, Catalog #D2650) and serially diluted 1:3 using 100% DMSO. Compounds were additionally diluted 1:33 in culture medium, and 10 μL/well was transferred to the tissue culture plate. Following the compound addition, the plate was incubated at 37° C. and 5% CO2 for 7 days. Cells were then mixed and a 30 μL volume was removed. Viability was assessed by a 30 μL addition of Cell Titer-Glo 2.0 (Promega, catalog #G9243). The plate was then shaken on an orbital shaker at 300 RPM for 10 minutes at room temperature, in the dark. Luminescence was measured using a PerkinElmer Envision™ plate reader. IC50 values were calculated using a four-parameter logistic curve fit using Genedata Screener software.

[3] = molecular target: T1, PRMT1; assay: PRMT1 RKO Cellular Target Engagement Assay (In-Cell Western, asymmetric di-methyl arginine); type: cell-based; conditions: RKO cells, 48 hr compound incubation; read-out: RKO IC50 (PRMT-1 Target Engagement)
Procedure: RKO cells were routinely maintained in EMEM media (ATCC, Catalog #30-2003) supplemented with 10% fetal bovine serum (Sigma, Catalog #F2442) using a humidified incubator (37° C., 5% CO2, and ambient O2).
In preparation for the In-Cell Western assay, cells were harvested and resuspended in EMEM media supplemented with 10% fetal bovine serum. Cells were seeded onto a 384 well, black, clear bottom, Poly-D-Lysine coated tissue culture plate (Greiner, Catalog #781946) at a density of 1,000 cells/well in a volume of 40 μL. The culture plate was incubated for 24 hr at 37° C. with 5% CO2 and ambient O2. Stock solutions of the test compounds were prepared in 100% DMSO (Sigma, Catalog #D2650) and serially diluted 1:3 using 100% DMSO. Compounds were additionally diluted 1:40 in culture medium, and 10 μL/well was transferred to the tissue culture plate. Following the compound addition the microplate was incubated at 37° C. for 48 hr.
The media was removed, the plate was washed with 1× PBS (Fisher Bioreagents, Catalog #BP399-20), and cells were fixed for 10 min using 30 μL/well of 4% paraformaldehyde (Electron Microscopy Sciences, Catalog #15710). The paraformaldehyde was removed, the plate was again washed with 1× PBS, and cells were permeabilized for 15 min using 30 μL/well of 1× PBS containing 0.5% Triton-X 100 (Sigma, Catalog #1001748095). The permeabilization buffer was removed, the plate was washed with 1× PBST (Boston BioProducts, Catalog #IBB-171X), and 50 μL/well of blocking buffer (LI-COR, Catalog #927-40000) was added followed by a 1 hour incubation at room temperature. The blocking buffer was removed, and 20 μL/well of anti-asymmetric di-methyl arginine antibody (Cell Signaling, Catalog #13522S) diluted 1:1000 in LI-COR blocking buffer was added to the plate and incubated overnight, in the dark at 4° C.
The primary antibody was then removed, and the plate was washed three times with 1× PBST. 20 μL/well of CellTag (LI-COR, Catalog #926-41090) and IRDye 800CW goat anti-rabbit IgG antibody (LI-COR, Catalog #926-32211), each diluted 1:500 in LI-COR blocking buffer supplemented with 0.1% Tween-20 (Thermo Scientific, Catalog #85114), were added to the plate. The plate was then incubated in the dark, at room temperature for 1 hour followed by three washes with 1× PBST and one wash with H2O. The IRDye secondary antibody signal (800 channel) and the CellTag signal (700 channel) were measured using a Licor Odyssey Imager, and the 800 channel signal was then normalized to the 700 channel signal. IC50 values were calculated using a four-parameter logistic curve fit using Genedata Screener software.

Structure (SMILES)	IC50 [1] [nM]	IC50 [2] [nM]	IC50 [3] [nM]
CNCCN(C)Cc1nn2c(c1C1CCC(COC)(COC)CC1)CN(C(=O)C1CCOC1(C)C)CC2 (stereo not drawn) [Example 73, (3-(4,4-bis(methoxymethyl)-cyclohexyl)-2-((methyl(2-(methylamino)ethyl)amino)-methyl)-6,7-dihydropyrazolo-[1,5-a]pyrazin-5(4H)-yl)(2,2-dimethyltetrahydrofuran-3-yl)methanone]	118	575	470
CNCCN(C)Cc1nn2c(c1C1CCC(COC)(COC)CC1)CN(C(=O)C(C)(C)OC)CC2 [Example 69, 1-(3-(4,4-bis(methoxy-methyl)cyclohexyl)-2-((methyl(2-(methylamino)-ethyl)amino)methyl)-6,7-dihydropyrazolo[1,5-a]-pyrazin-5(4H)-yl)-2-methoxy-2-methylpropan-1-one]	320	474	430
CNCCN(C)Cc1nn2c(c1C1CCC(COC)(COC)CC1)CN(C(=O)C1(C)CCCO1)CC2 (stereo not drawn) [Example 57, (3-(4,4-bis(methoxymethyl)-cyclohexyl)-2-((methyl(2-(methylamino)ethyl)amino)-methyl)-6,7-dihydropyrazolo-[1,5-a]pyrazin-5(4H)-yl)(2-methyltetrahydrofuran-2-yl)-methanone]	80	170	267
CNCCN(C)Cc1nn2c(c1C1CCC(COC)(COC)CC1)CN(C(=O)C(C)(C)COC)CC2 [Example 54, 1-(3-(4,4-bis(methoxy-methyl)cyclohexyl)-2-((methyl(2-(methylamino)-ethyl)amino)methyl)-6,7-dihydropyrazolo[1,5-a]-pyrazin-5(4H)-yl)-3-methoxy-2,2-dimethylpropan-1-one]	103	293	203
CNCCN(C)Cc1nn2c(c1C1CCC(COC)(COC)CC1)CN(C(C)=O)CC2 [Example 55, 1-(3-(4,4-bis(methoxy-methyl)cyclohexyl)-2-((methyl(2-(methylamino)-ethyl)amino)methyl)-6,7-dihydropyrazolo[1,5-a]-pyrazin-5(4H)-yl)ethan-1-one]	70	296	1110
CCC1(C(=O)N2CCn3nc(CN(C)CCNC)c(C4CCC(COC)(COC)CC4)c3C2)CCC1 [Example 67, (3-(4,4-bis(methoxymethyl)-cyclohexyl)-2-((methyl(2-(methylamino)ethyl)amino)-methyl)-6,7-dihydropyrazolo-[1,5-a]pyrazin-5(4H)-yl)(1-ethylcyclobutyl)methanone]	75	156	273
CNCCN(C)Cc1nn2c(c1C1CCC(COC)(COC)CC1)CN(C(=O)C1CC(C)(O)C1)CC2 (stereo not drawn) [Example 75, (3-(4,4-bis(methoxymethyl)-cyclohexyl)-2-((methyl(2-(methylamino)ethyl)amino)-methyl)-6,7-dihydropyrazolo-[1,5-a]pyrazin-5(4H)-yl)(3-hydroxy-3-methylcyclobutyl)methanone]	70	1440	5650
CNCCN(C)Cc1nn2c(c1C1CCC(COC)(COC)CC1)CN(C(=O)C1CCC1(F)F)CC2 (stereo not drawn) [Example 81, (3-(4,4-bis(methoxymethyl)-cyclohexyl)-2-((methyl(2-(methylamino)ethyl)amino)-methyl)-6,7-dihydropyrazolo-[1,5-a]pyrazin-5(4H)-yl)(2,2-difluorocyclobutyl)-methanone]	133	296	367
CNCCN(C)Cc1nn2c(c1C1CCC(COC)(COC)CC1)CN(C(=O)C(C)(C)F)CC2 [Example 59, 1-(3-(4,4-bis(methoxy-methyl)cyclohexyl)-2-((methyl(2-(methylamino)-ethyl)amino)methyl)-6,7-dihydropyrazolo[1,5-a]-pyrazin-5(4H)-yl)-2-fluoro-2-methylpropan-1-one]	48	113	177
CNCCN(C)Cc1nn2c(c1C1CCC(COC)(COC)CC1)CN(C(=O)C1(C(C)C)CCC1)CC2 [Example 64, (3-(4,4-bis(methoxymethyl)-cyclohexyl)-2-((methyl(2-(methylamino)ethyl)amino)-methyl)-6,7-dihydropyrazolo-[1,5-a]pyrazin-5(4H)-yl)(1-isopropylcyclobutyl)-methanone]	112	230	2330
CCOC12CC(C(=O)N3CCn4nc(CN(C)CCNC)c(C5CCC(COC)(COC)CC5)c4C3)(C1)C2 [Example 26, (3-(4,4-bis(methoxymethyl)-cyclohexyl)-2-((methyl(2-(methylamino)ethyl)amino)-methyl)-6,7-dihydropyrazolo-[1,5-a]pyrazin-5(4H)-yl)(3-ethoxybicyclo[1.1.1]pentan-1-yl)methanone]	439	844	2400
CCC(C)C(=O)N1CCn2nc(CN(C)CCNC)c(C3CCC(COC)(COC)CC3)c2C1 (stereo not drawn) [Example 65, 1-(3-(4,4-bis(methoxy-methyl)cyclohexyl)-2-((methyl(2-(methylamino)-ethyl)amino)methyl)-6,7-dihydropyrazolo[1,5-a]-pyrazin-5(4H)-yl)-2-methylbutan-1-one]	70	134	534
